Patent publication US20250170130A1, “MODULATORS OF MYC FAMILY PROTO-ONCOGENE PROTEIN” (Nalo Therapeutics, priority 2022, published 2025)

Tests used:
[1] = target: T1, MycC (Homo sapiens, UniProt P01106); assay: Degradation of MycC protein in L363 cells, JESS/Western blot of lysates; format: cell-based; conditions: L-363 cells, 24 h; for Dmax at 0.5 µM / Dmax at 1 µM / Dmax at 6 µM / Dmax at 3 µM: L-363, 24 h; for Dmax at 0.5 µM: read-out: % Degradation of MycC (L-363) 24 h, 0.5 μM; for Dmax at 1 µM: read-out: % Degradation of MycC (L-363) 24 h, 1 μM; for Dmax at 6 µM: read-out: % Degradation of MycC (L-363) 24 h, 6 μM; for Dmax at 3 µM: read-out: % Degradation of MycC (L-363) 24 h, 3 μM
T1 construct: endogenous in cells; host or cells: L363
T1 sequence (P01106 whole entry): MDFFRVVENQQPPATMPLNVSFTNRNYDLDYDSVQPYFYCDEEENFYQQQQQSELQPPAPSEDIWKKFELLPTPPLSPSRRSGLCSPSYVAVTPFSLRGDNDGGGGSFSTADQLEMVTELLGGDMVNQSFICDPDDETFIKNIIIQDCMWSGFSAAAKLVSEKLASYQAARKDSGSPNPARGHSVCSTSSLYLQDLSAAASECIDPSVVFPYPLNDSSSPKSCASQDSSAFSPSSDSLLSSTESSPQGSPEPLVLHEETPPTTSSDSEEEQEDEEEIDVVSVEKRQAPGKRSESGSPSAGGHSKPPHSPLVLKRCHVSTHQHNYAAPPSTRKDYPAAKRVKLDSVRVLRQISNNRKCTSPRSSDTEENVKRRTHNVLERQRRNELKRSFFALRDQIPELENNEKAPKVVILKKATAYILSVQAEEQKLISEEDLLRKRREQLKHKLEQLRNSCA
Protocol: For L363 cells (suspension), 1E6 cells were plated into each well of a 6 well plate. For SK-N-BE(2) cells (adherent), 5E5 cells were plated into each well of a 6 well dish. […] All compounds were diluted to 10 mM in DMSO. Cells were treated with the compound for 24 hrs, then for both cell types, media containing cells were removed from wells into a 15 ml centrifuge tube, and remaining adherent SK-N-BE(2) cells were also scraped from the wells into the appropriate tubes. Tubes were centrifuged, cells were washed with PBS then re-centrifuged to pellet cells. A RIPA buffer cocktail was added to the cells on ice for 5 mins. Cell lysates were clarified by centrifugation and stored at −80 degrees until required. BCA assay was performed on each lysate to determine the protein concentration.
(§1) Once an appropriate lysate concentration and antibody concentration was determined, samples were screened in the JESS technology (Protein Simple, San Jose, CA—https://www.proteinsimple.com/jess.html).
(§2) Target protein antibodies (n-myc and c-myc) were detected in the chemi-luminescence channel and loading controls (tubulin and GAPDH) were detected using a Near Infra Red (NIR) labeled secondary antibody.
For SK-N-EB2 adherent cells, 5E5 cells in 1.9 mls media were plated into 6 well dishes and incubated for 24 hrs. […] Cells were scrapped off the plate, centrifuged, washed with PBS, centrifuged, then a RIPA buffer cocktail added to the cells (100 ul), centrifuged and stored at −80 for later analysis. For L363 suspension cells, 1E6 cells were plated into […] (950 ul media) and incubated for 24 hrs. […] Cells were aspirated into tubes, centrifuged, washed with PBS, centrifuged, then a RIPA buffer cocktail added to the cells (100 ul), centrifuged and stored at −80 for later analysis.
(§3) For Western blot, a BCA (total protein) assay was run on all samples, these were then run in batches of 5 compounds plus control (DMSO) on each Western blot run—n-myc and c-myc were run in separate experiments in the chemiluminescence channel. Both tubulin and GAPDH were run as loading controls in all lanes in the near infra red channel.

[2] = target: T2, MycN (Homo sapiens, UniProt P04198); assay: Degradation of MycN protein in SK-N-BE(2) cells, JESS/Western blot of lysates; format: cell-based; conditions: SKNBE2 cells, 24 h; for Dmax at 0.5 µM / Dmax at 1 µM / Dmax at 3 µM / Dmax at 6 µM: SKNBE2, 24 h; for Dmax at 0.5 µM: read-out: % Degradation of MycN (SKNBE2) 24 h, 0.5 μM; for Dmax at 1 µM: read-out: % Degradation of MycN (SKNBE2) 24 h, 1 μM; for Dmax at 3 µM: read-out: % Degradation of MycN (SKNBE2) 24 h, 3 μM; for Dmax at 6 µM: read-out: % Degradation of MycN (SKNBE2) 24 h, 6 μM
T2 construct: endogenous in cells; host or cells: SK-N-BE(2)
T2 sequence (P04198 1-464): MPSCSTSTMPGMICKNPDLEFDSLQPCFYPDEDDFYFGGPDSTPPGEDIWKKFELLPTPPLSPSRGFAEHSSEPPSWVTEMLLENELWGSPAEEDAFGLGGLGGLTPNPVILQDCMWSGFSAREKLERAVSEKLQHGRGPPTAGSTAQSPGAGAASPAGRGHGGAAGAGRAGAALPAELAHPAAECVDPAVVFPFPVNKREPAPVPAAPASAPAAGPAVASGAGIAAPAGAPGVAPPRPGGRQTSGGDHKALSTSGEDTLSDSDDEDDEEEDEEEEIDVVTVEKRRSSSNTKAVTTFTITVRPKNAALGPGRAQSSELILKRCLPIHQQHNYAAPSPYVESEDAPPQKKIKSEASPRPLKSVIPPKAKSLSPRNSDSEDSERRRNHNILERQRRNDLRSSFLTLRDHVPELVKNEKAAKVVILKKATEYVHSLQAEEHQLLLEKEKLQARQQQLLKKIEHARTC
Protocol: For L363 cells (suspension), 1E6 cells were plated into each well of a 6 well plate. For SK-N-BE(2) cells (adherent), 5E5 cells were plated into each well of a 6 well dish. Cells were cultured for 24 hrs then treated with exemplary compounds at […] final assay concentrations plus DMSO control. All compounds were diluted to 10 mM in DMSO. Cells were treated with the compound for 24 hrs, then for both cell types, media containing cells were removed from wells into a 15 ml centrifuge tube, and remaining adherent SK-N-BE(2) cells were also scraped from the wells into the appropriate tubes. Tubes were centrifuged, cells were washed with PBS then re-centrifuged to pellet cells. A RIPA buffer cocktail was added to the cells on ice for 5 mins. Cell lysates were clarified by centrifugation and stored at −80 degrees until required. BCA assay was performed on each lysate to determine the protein concentration.
as §1, §2
For SK-N-EB2 adherent cells, 5E5 cells in 1.9 mls media were plated into 6 well dishes and incubated for 24 hrs. Exemplary compounds were added (100 ul, 1 in 20 dilution in media) to each well (final assay concentration 6, 3, 1 and […]) together with DMSO control wells and incubated for 24 hrs. Cells were scrapped off the plate, centrifuged, washed with PBS, centrifuged, then a RIPA buffer cocktail added to the cells (100 ul), centrifuged and stored at −80 for later analysis. For L363 suspension cells, 1E6 cells were plated into 24 well dishes (950 ul media) and incubated for 24 hrs. Exemplary compounds were added (50 ul, 1 in 20 dilution in media) to each well (final assay concentration 6, 3, 1 and […]) together with DMSO control wells and incubated for 24 hrs. Cells were aspirated into tubes, centrifuged, washed with PBS, centrifuged, then a RIPA buffer cocktail added to the cells (100 ul), centrifuged and stored at −80 for later analysis.
as §3

Row | Dmax at 0.5 µM ([1]; 0.5 μM) [%] | Dmax at 1 µM [1] [%] | Dmax at 6 µM ([1]; 6 μM) [%] | Dmax at 0.5 µM [2] [%] | Dmax at 1 µM [2] [%] | Dmax at 3 µM [2] [%] | Dmax at 6 µM ([2]; 6 μM) [%] | Dmax at 3 µM [1] [%] | % Degradation of MycC (L-363) 24 h, 0.5 μM ([1]; 0.5 μM) | % Degradation of MycC (L-363) 24 h, 6 μM ([1]; 6 μM) | % Degradation of MycN (SKNBE2) 24 h, 6 μM ([2]; 6 μM) | SMILES
1 | < 20 | < 20 | < 20 | < 20 | < 20 | 20 to 49 | 20 to 49 | < 20 |  |  |  | c1cc(Nc2cc(C3CCCC3)[nH]n2)nc(N2CC3(CCCNC3)C2)n1 [Compound 106, N-(5-Cyclopentyl-1H-pyrazol-3-yl)-2-(2,8-diazaspiro[3.5]nonan-2-yl)pyrimidin-4-amine]
2 |  | < 20 | 80 to 100 | 20 to 49 | 20 to 49 | 20 to 49 | 80 to 100 |  |  |  |  | NCC1CN(c2nccc(Nc3cc(C4CC4)[nH]n3)n2)CC1(F)F (stereo not shown) [Compound 124, 2-[4-(Aminomethyl)-3,3-difluoro-pyrrolidin-1-yl]-N-(5-cyclopropyl-1H-pyrazol-3-yl)pyrimidin-4-amine]
3 | < 20 | < 20 | 80 to 100 | < 20 | 20 to 49 | 80 to 100 | 80 to 100 |  |  |  |  | CC(F)(F)CNCC12CC(C1)N(c1nccc(Nc3cc(C4CCCC4)[nH]n3)n1)C2 [Compound 103, N-(5-Cyclopentyl-1H-pyrazol-3-yl)-2-[4-[(2,2-difluoropropylamino)methyl]-2-azabicyclo[2.1.1]hexan-2-yl]pyrimidin-4-amine]
4 | 20 to 49 |  | 80 to 100 |  |  |  | 80 to 100 |  | ** (degradation 20-49%) | **** (degradation 80-100%) | **** (degradation 80-100%) | CC(N)C1CCCN(c2nccc(Nc3cc(C4CC4)[nH]n3)n2)C1 (single isomer, unassigned) [Compound 159, 2-[3-(1-Aminoethyl)-1-piperidyl]-N-(5-cyclopropyl-1H-pyrazol-3-yl)pyrimidin-4-amine]
5 | 80 to 100 | 80 to 100 | 80 to 100 | 80 to 100 | 80 to 100 | 80 to 100 | 80 to 100 | 80 to 100 |  |  |  | NCC12CCC(C1)N(c1nccc(Nc3cc(C4CC4)[nH]n3)n1)C2 (stereo not shown) [Compound 113, 2-[4-(Aminomethyl)-2-azabicyclo[2.2.1]heptan-2-yl]-N-(5-cyclopropyl-1H-pyrazol-3-yl)pyrimidin-4-amine]

The remaining lines, values behind:

Row | SMILES | Dmax at 0.5 µM ([1]; 0.5 μM) [%] | Dmax at 1 µM [1] [%] | Dmax at 6 µM ([1]; 6 μM) [%] | Dmax at 0.5 µM [2] [%] | Dmax at 1 µM [2] [%] | Dmax at 3 µM [2] [%] | Dmax at 6 µM ([2]; 6 μM) [%] | Dmax at 3 µM [1] [%] | % Degradation of MycC (L-363) 24 h, 0.5 μM ([1]; 0.5 μM) | % Degradation of MycC (L-363) 24 h, 6 μM ([1]; 6 μM) | % Degradation of MycN (SKNBE2) 24 h, 6 μM ([2]; 6 μM)
6 | CN1CC2(CCN(c3nccc(Nc4cc(C5CC5)[nH]n4)n3)C2)C1 [Compound 3, N-(5-cyclopropyl-1H-pyrazol-3-yl)-2-(2-methyl-2,6-diazaspiro[3.4]octan-6-yl)pyrimidin-4-amine] | < 20 | 20 to 49 | 80 to 100 | < 20 | < 20 | < 20 | 50 to 79 |  |  |  | 
7 | CNC[C@H]1CCN(c2nccc(Nc3cc(C4CC4)[nH]n3)n2)C1 [Compound 7, (R)—N-(5-Cyclopropyl-1H-pyrazol-3-yl)-2-(3-((methylamino)methyl)pyrrolidin-1-yl)pyrimidin-4-amine] |  | < 20 |  | < 20 | < 20 | 50 to 79 | 80 to 100 |  |  |  | 
8 | CNC1CC2(C1)CN(c1nccc(Nc3cc(C4CC4)[nH]n3)n1)C2 [Compound 1, 2-(4-((5-cyclopropyl-1H-pyrazol-3-yl)amino)pyrimidin-2-yl)-N-methyl-2-azaspiro[3.3]heptan-6-amine] |  |  | 20 to 49 |  |  | < 20 | 50 to 79 |  |  |  | 
9 | CNCC12CC(C1)N(c1nccc(Nc3cc(C4CCCC4)[nH]n3)n1)C2 [Compound 31, N-(5-cyclopentyl-1H-pyrazol-3-yl)-2-[4-(methylaminomethyl)-2-azabicyclo[2.1.1]hexan-2-yl]pyrimidin-4-amine] |  |  | 80 to 100 | 80 to 100 | 80 to 100 | 80 to 100 | 80 to 100 | 80 to 100 |  |  | 
10 | CNC[C@H]1CCCN(c2nccc(Nc3cc(C4CC4)[nH]n3)n2)C1 [Compound 16, N-(5-Cyclopropyl-1H-pyrazol-3-yl)-2-[(3R)-3-(methylaminomethyl)-1-piperidyl]pyrimidin-4-amine] | < 20 | < 20 | < 20 | < 20 | 80 to 100 | 80 to 100 | 80 to 100 | < 20 |  |  | 
11 | CN1CC(C2CCN(c3nccc(Nc4cc(C5CCCC5)[nH]n4)n3)C2)C1 (stereo not shown) [Compound 27, N-(5-cyclopentyl-1H-pyrazol-3-yl)-2-[3-(1-methylazetidin-3-yl)pyrrolidin-1-yl]pyrimidin-4-amine] | < 20 | 20 to 49 | 20 to 49 | 20 to 49 | 20 to 49 | 50 to 79 | 80 to 100 | < 20 |  |  | 
12 | c1cc(Nc2cc(C3CCCC3)[nH]n2)nc(N2CC3(CN4CCOCC4)CC2C3)n1 [Compound 72, N-(5-Cyclopentyl-1H-pyrazol-3-yl)-2-[4-(morpholinomethyl)-2-azabicyclo[2.1.1]hexan-2-yl]pyrimidin-4-amine] |  |  | 80 to 100 | 20 to 49 | 20 to 49 | 50 to 79 | 80 to 100 |  |  |  | 
13 | c1cc(Nc2cc(C3CC3)[nH]n2)nc(N2CCC3(CNC3)C2)n1 [Compound 2, N-(5-cyclopropyl-1H-pyrazol-3-yl)-2-(2,6-diazaspiro[3.4]octan-6-yl)pyrimidin-4-amine] | 20 to 49 | 20 to 49 | 20 to 49 | < 20 | < 20 | < 20 | 50 to 79 | 20 to 49 |  |  | 
